Target: P. falciparum apicoplast DNA polymerase (Pf-apPOL) (Plasmodium falciparum, UniProt Q8ILY1)
Test: Fluorescence-based high-throughput DNA polymerase assay (molecular beacon), primary screen and dose-response
Type: biochemical
Method in brief: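 Single-point screening used 10 µM compound with 20 nM polymerase, 20 nM hairpin substrate and 6 µM dNTPs for 90 min at 25 °C. Confirmatory titrations (2.5–80 µM) followed fluorescence at three times, and IC50 was derived from a fit including a cooperativity term n.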

Sequence of P. falciparum apicoplast DNA polymerase (Pf-apPOL) (Q8ILY1 entry or part of it): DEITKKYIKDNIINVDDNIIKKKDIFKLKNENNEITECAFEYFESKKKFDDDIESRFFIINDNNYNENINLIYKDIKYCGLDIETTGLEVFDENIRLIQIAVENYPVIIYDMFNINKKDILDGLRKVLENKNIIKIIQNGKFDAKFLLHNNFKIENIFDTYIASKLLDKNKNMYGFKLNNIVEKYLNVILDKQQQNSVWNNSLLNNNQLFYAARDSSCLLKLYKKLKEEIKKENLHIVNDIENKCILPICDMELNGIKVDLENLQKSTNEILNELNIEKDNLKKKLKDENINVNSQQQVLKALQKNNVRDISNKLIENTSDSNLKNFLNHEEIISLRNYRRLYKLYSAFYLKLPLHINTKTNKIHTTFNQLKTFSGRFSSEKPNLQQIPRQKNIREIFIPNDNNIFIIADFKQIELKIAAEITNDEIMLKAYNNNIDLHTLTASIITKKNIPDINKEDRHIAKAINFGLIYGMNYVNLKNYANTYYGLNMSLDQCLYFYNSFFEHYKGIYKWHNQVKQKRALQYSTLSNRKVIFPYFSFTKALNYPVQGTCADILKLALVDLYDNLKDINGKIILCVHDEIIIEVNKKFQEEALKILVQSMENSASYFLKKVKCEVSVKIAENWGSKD

O=C(O)c1ccc(COc2cc([N+](=O)[O-])cc3cccnc23)cc1 [KU0058403]
DNA Pol ('DNA Pol' of the 186 hits list (screen value); 90 min, 10 µM): 59 | % inhibition Apo pol 10' (DRC-1; 10'; conc 2.5): 14.3649% | % inhibition Apo pol 10' (DRC-1; 10'; conc 5): 27.7405% | % inhibition Apo pol 10' (DRC-1; 10'; conc 10): 42.2641% | % inhibition Apo pol 10' (DRC-1; 10'; conc 20): 75.4082% | % inhibition Apo pol 10' (DRC-1; 10'; conc 40): 92.5507% | % inhibition Apo pol 10' (DRC-1; 10'; conc 80): 97.3906% | % inhibition Apol 90' (DRC-1; 90'; conc 2.5): 7.929% | % inhibition Apol 90' (DRC-1; 90'; conc 5): 14.8475% | % inhibition Apol 90' (DRC-1; 90'; conc 10): 27.7051% | % inhibition Apol 90' (DRC-1; 90'; conc 20): 56.1594% | % inhibition Apol 90' (DRC-1; 90'; conc 40): 83.537% | % inhibition Apol 90' (DRC-1; 90'; conc 80): 95.378% | % inhibition apPOL 180' (DRC-1; 180'; conc 2.5): 6.111% | % inhibition apPOL 180' (DRC-1; 180'; conc 5): 9.076% | % inhibition apPOL 180' (DRC-1; 180'; conc 10): 18.5156% | % inhibition apPOL 180' (DRC-1; 180'; conc 20): 39.8383% | % inhibition apPOL 180' (DRC-1; 180'; conc 40): 74.9259% | % inhibition apPOL 180' (DRC-1; 180'; conc 80): 94.2886% | % inhibition Apo pol 5' (DRC-2; 5'; conc 2.5): 17% | % inhibition Apo pol 5' (DRC-2; 5'; conc 5): 21% | % inhibition Apo pol 5' (DRC-2; 5'; conc 10): 31% | % inhibition Apo pol 5' (DRC-2; 5'; conc 20): 43% | % inhibition Apo pol 5' (DRC-2; 5'; conc 40): 55% | % inhibition Apo pol 5' (DRC-2; 5'; conc 80): 60% | % inhibition Apol 40' (DRC-2; 40'; conc 2.5): 10% | % inhibition Apol 40' (DRC-2; 40'; conc 5): 14% | % inhibition Apol 40' (DRC-2; 40'; conc 10): 23% | % inhibition Apol 40' (DRC-2; 40'; conc 20): 39% | % inhibition Apol 40' (DRC-2; 40'; conc 40): 59% | % inhibition Apol 40' (DRC-2; 40'; conc 80): 74% | % inhibition ApPOL 90' (DRC-2; 90'; conc 2.5): 7% | % inhibition ApPOL 90' (DRC-2; 90'; conc 5): 12% | % inhibition ApPOL 90' (DRC-2; 90'; conc 10): 19% | % inhibition ApPOL 90' (DRC-2; 90'; conc 20): 35% | % inhibition ApPOL 90' (DRC-2; 90'; conc 40): 57% | % inhibition ApPOL 90' (DRC-2; 90'; conc 80): 76% | % inhibition ApPOL 90' (DRC-2; 90'; concentration 80): 76% | % inhibition apPOL 180' (DRC-2; 180'; conc 2.5): 1.43% | % inhibition apPOL 180' (DRC-2; 180'; conc 5): 2.25% | % inhibition apPOL 180' (DRC-2; 180'; conc 10): 8.43% | % inhibition apPOL 180' (DRC-2; 180'; conc 20): 22% | % inhibition apPOL 180' (DRC-2; 180'; conc 40): 48% | % inhibition apPOL 180' (DRC-2; 180'; conc 80): 76% | % inhibition apPOL 180' (DRC-2; 180'; concentration 80): 76% | DNA Pol (primary screen value, "DNA Pol"; 90 min, 10 µM): 59

O=c1cc(-c2ccccc2)oc2c(O)c(O)ccc12 [Molecule 84, Oc1ccc2c(c1O)oc(cc2=O)c1ccccc1]
DNA Pol (186 hits, value of the hit list (primary screen); unit not given; 90 min, 10 µM): 55 | % inhibition Apo pol 10' (DRC-1; 10'; concentration 2.5): 14.1303% | % inhibition Apo pol 10' (DRC-1; 10'; concentration 5): 19.657% | % inhibition Apo pol 10' (DRC-1; 10'; concentration 10): 33.8432% | % inhibition Apo pol 10' (DRC-1; 10'; concentration 20): 42.9919% | % inhibition Apo pol 10' (DRC-1; 10'; concentration 40): 51.8731% | % inhibition Apo pol 10' (DRC-1; 10'; concentration 80): 57.9256% | % inhibition Apol 90' (DRC-1; 90'; concentration 2.5): 6.487% | % inhibition Apol 90' (DRC-1; 90'; concentration 5): 3.595% | % inhibition Apol 90' (DRC-1; 90'; concentration 10): 11.2996% | % inhibition Apol 90' (DRC-1; 90'; concentration 20): 16.5407% | % inhibition Apol 90' (DRC-1; 90'; concentration 40): 24.8113% | % inhibition Apol 90' (DRC-1; 90'; concentration 80): 29.7853% | % inhibition apPOL 180' (DRC-1; 180'; concentration 2.5): 1.7844% | % inhibition apPOL 180' (DRC-1; 180'; concentration 5): -2.772% | % inhibition apPOL 180' (DRC-1; 180'; concentration 10): 4.166% | % inhibition apPOL 180' (DRC-1; 180'; concentration 20): 7.699% | % inhibition apPOL 180' (DRC-1; 180'; concentration 40): 14.2771% | % inhibition apPOL 180' (DRC-1; 180'; concentration 80): 18.1576% | % inhibition Apo pol 5' (DRC-2, 5', concentration 2.5): 12% | % inhibition Apo pol 5' (DRC-2, 5', concentration 5): 18% | % inhibition Apo pol 5' (DRC-2, 5', concentration 10): 26% | % inhibition Apo pol 5' (DRC-2, 5', concentration 20): 32% | % inhibition Apo pol 5' (DRC-2, 5', concentration 40): 41% | % inhibition Apo pol 5' (DRC-2, 5', concentration 80): 42% | % inhibition Apol 40' (DRC-2, 40', concentration 2.5): 10% | % inhibition Apol 40' (DRC-2, 40', concentration 5): 13% | % inhibition Apol 40' (DRC-2, 40', concentration 10): 21% | % inhibition Apol 40' (DRC-2, 40', concentration 20): 23% | % inhibition Apol 40' (DRC-2, 40', concentration 40): 32% | % inhibition Apol 40' (DRC-2, 40', concentration 80): 36% | % inhibition ApPOL 90' (DRC-2, 90', concentration 2.5): 8% | % inhibition ApPOL 90' (DRC-2, 90', concentration 5): 10% | % inhibition ApPOL 90' (DRC-2, 90', concentration 10): 16% | % inhibition ApPOL 90' (DRC-2, 90', concentration 20): 17% | % inhibition ApPOL 90' (DRC-2, 90', concentration 40): 26% | % inhibition ApPOL 90' (DRC-2, 90', concentration 80): 32% | % inhibition apPOL 180' (DRC-2, 180', concentration 2.5): 1.74% | % inhibition apPOL 180' (DRC-2, 180', concentration 5): 3.63% | % inhibition apPOL 180' (DRC-2, 180', concentration 10): 7.41% | % inhibition apPOL 180' (DRC-2, 180', concentration 20): 6% | % inhibition apPOL 180' (DRC-2, 180', concentration 40): 16% | % inhibition apPOL 180' (DRC-2, 180', concentration 80): 23% | % inhibition Apo pol 5' (DRC-2; 5'; concentration 10): 26% | % inhibition Apo pol 5' (DRC-2; 5'; concentration 20): 32% | % inhibition Apol 40' (DRC-2; 40'; concentration 2.5): 10% | % inhibition Apol 40' (DRC-2; 40'; concentration 20): 23% | % inhibition Apol 40' (DRC-2; 40'; concentration 40): 32% | % inhibition ApPOL 90' (DRC-2; 90'; concentration 5): 10% | % inhibition ApPOL 90' (DRC-2; 90'; concentration 10): 16% | % inhibition ApPOL 90' (DRC-2; 90'; concentration 40): 26% | % inhibition ApPOL 90' (DRC-2; 90'; concentration 80): 32% | % inhibition apPOL 180' (DRC-2; 180'; concentration 40): 16% | % inhibition apPOL 180' (DRC-2; 180'; concentration 80): 23% | DNA Pol (primary screen value, 'DNA Pol' only; 90 min, 10 µM): 55

Cc1ccc(C)n1-c1ccc(C(=O)NNC(=O)c2ccc3nccnc3c2)cc1 [Molecule 53]
IC50 (supplemental file 2, sheet IC50 nontoxic compounds; Pf-apPOL): 20.4 µM

From publication PMC9090415, “Discovery of small molecule inhibitors of Plasmodium falciparum apicoplast DNA polymerase” (Journal of Enzyme Inhibition and Medicinal Chemistry, 2022)
